Source: US10925856B2, “Methods and compositions involving bucindolol for the treatment of atrial fibrillation” (priority 2018, dated 2021)

How the values were obtained:
[1] = tested on: patients with HF and/or AF; settings: cited from earlier work
clinical = settings: human, in vivo
Description: Based on FDA interactions and recommendations^63 the inventor sought to categorize CYP2D6 genetic variation in every patient in GENETIC-AF.
CYP2D6 polymorphisms were identified using the xTAG® CYP2D6 Kit v3 manufactured by Luminex Corporation, with the assay performed by Esoterix, Boulder, Colo. on DNA extracted from whole blood by LabCorp's subsidiary Covance, of Salt Lake City, Utah See Table 41 in the Appendix for identified polymorphisms.
Sparse sampling of bucindolol hydrochloride plasma concentrations for population pharmacokinetic analysis. The analysis plan for the substudy will be prepared separately prior to unblinding.

[2] = tested on: advanced HFrEF patients (ADRB1 Arg389Gly / ADRA2C Ins322-325Del genotypes); assay: BEST trial and DNA (pharmacogenetic) substudy: bucindolol vs. placebo; assay type: in vivo, human
Description: The relationship of the ADRA2C Ins/Del polymorphism to systemic NE levels and clinical outcomes was investigated as part of the BEST trial AR polymorphism substudy.
Variables identified in the GENETIC-AF Statistical Analysis Plan (SAP) that were potential predictors of the primary endpoint were investigated by precision therapeutic phenotyping. Hypothesis-based (e.g., AF duration, AF type, LVEF, NYHA Class, NT-proBNP, norepinephrine) and hypothesis-free (e.g. HF duration, initial study dose) elements were included in the multivariate methodology, which was applied to both obvious and non-obvious data to identify a therapeutic phenotype appropriate for investigating in Phase 3. To examine the relationship between HF duration and bucindolol effectiveness for reducing HF events, we analyzed data from the BEST trial (14) and pharmacogenetic substudy (17) for the endpoint of time to all-cause mortality or first HF hospitalization (ACM/HFH).

[3] = tested on: patients with HF and/or AF; assay: Literature β-blocker trials and meta-analyses for AF prevention / recurrence; assay type: in vivo, human
[4] = BEST ADRB1 389Gly Carriers n = 482
[5] = BEST ADRB1 Arg389Arg, free of AF at randomization
[6] = BEST ADRB1 Arg389Arg, free of AF at randomization, bucindolol vs placebo
[7] = BEST DNA substudy all genotypes n = 1040

Q: With `COCCc1ccc(OCC(O)CNC(C)C)cc1` (stereo not shown) [metoprolol, metoprolol succinate, reference compound] as the compound, how does the “Lowering of AF risk” value ([1]; HFrEF (MERIT-HF)) read?
A: 48%

Q: What about the “Incidence of AF recurrence” value ([1]; persistent AF, ECV to SR, end of 6-month follow-up) of the same compound?
A: 52%

Q: Which “Plasma concentration in PMs relative to IMs” value (clinical; 12 weeks) does the source give for `CC(C)(Cc1c[nH]c2ccccc12)NCC(O)COc1ccccc1C#N` (stereo not shown) [bucindolol, 2-(3-(1-(1H-indol-3-yl)-2-methylpropan-2-ylamino)-2-hydroxypropoxy)benzonitrile] here?
A: 5.7 fold

Q: What about the concentration at 12 weeks (clinical; Drug levels as measured in PMs) of the same compound?
A: 200 to 500 nM

Q: What about the “Events/patients (rate), time to AF/AFL/ACM” value (“Events/patients (rate), time” below) [2, 4] of the same compound?
A: (26.8%)

Q: What about the “Events/patients, time to AF/AFL/ACM” value [2, 4] of the same compound?
A: 61/228

Q: What about the “Hazard Ratio (95% C.I.), time to AF/AFL/ACM” value ([2]; BEST ADRB1 389Gly Carriers, bucindolol vs placebo) of the same compound?
A: 0.95

Q: What about the “Events/patients (rate), time” value ([2]; BEST ADRB1 Arg389Arg n = 435) of the same compound?
A: (18.5%)

Q: What about the “Events/patients, time to AF/AFL/ACM” value ([2]; BEST ADRB1 Arg389Arg n = 435) of the same compound?
A: 43/232

Q: And the ACM events [2, 5]?
A: 33

Q: And the “ACM events/pt (%)” value [2, 5]?
A: 14.0%

Q: And the ACM/CVH events [2, 5]?
A: 106

Q: What about the “ACM/CVH events/pt (%)” value [2, 5] of the same compound?
A: 45.1%

Q: What about the ACM/HFH events [2, 5] of the same compound?
A: 82

Q: And the “ACM/HFH events/pt (%)” value [2, 5]?
A: 34.9%

Q: What about the CVH events [2, 5] of the same compound?
A: 88

Q: What about the “CVH events/pt (%)” value [2, 5] of the same compound?
A: 37.5%

Q: And the CVM events [2, 5]?
A: 25

Q: What about the “CVM events/pt (%)” value [2, 5] of the same compound?
A: 10.6%

Q: And the CVM/HFH events [2, 5]?
A: 76

Q: And the “CVM/HFH events/pt (%)” value [2, 5]?
A: 32.3%

Q: And the HFH events [2, 5]?
A: 65

Q: What about the “HFH events/pt (%)” value [2, 5] of the same compound?
A: 27.7%

Q: What about the “ACM HzR” value [2, 6] of the same compound?
A: 0.61

Q: What about the “ACM/CVH HzR” value [2, 6] of the same compound?
A: 0.72

Q: And the “ACM/HFH HzR” value [2, 6]?
A: 0.69

Q: What about the “CVH HzR” value [2, 6] of the same compound?
A: 0.69

Q: What about the “CVM HzR” value [2, 6] of the same compound?
A: 0.54

Q: What about the “CVM/HFH HzR” value [2, 6] of the same compound?
A: 0.66

Q: And the “HFH HzR” value [2, 6]?
A: 0.70

Q: What about the “Hazard Ratio (95% C.I.), time to AF/AFL/ACM” value ([2]; BEST ADRB1 Arg389Arg, bucindolol vs placebo) of the same compound?
A: 0.49

Q: What about the “Events/patients (rate), time” value [2, 7] of the same compound?
A: (22.6%)

Q: And the “Events/patients, time to AF/AFL/ACM” value [2, 7]?
A: 104/460

Q: What about the “Hazard Ratio (95% C.I.), time to AF/AFL/ACM” value ([2]; BEST DNA substudy all genotypes, bucindolol vs placebo) of the same compound?
A: 0.70

Q: What about the “Events/patients (rate), time” value ([2]; BEST Entire Cohort n = 2708) of the same compound?
A: (33.6%)

Q: And the “Events/patients, time to AF/AFL/ACM” value ([2]; BEST Entire Cohort n = 2708)?
A: 401/1193

Q: And the “Hazard Ratio (95% C.I.), time to AF/AFL/ACM” value ([2]; BEST Entire Cohort, bucindolol vs placebo)?
A: 0.80

Q: And the “Predicted relative effect size in favor of bucindolol vs. metoprolol” value ([3]; RES = Ln HzR1/Ln HzR2, prevention of AF in HFrEF)?
A: 2.1 fold

Q: What about the “Effect size in a direct comparison of bucindolol to metoprolol (estimated)” value ([3]; from relative effect size) of the same compound?
A: 51%

Q: What about the “Risk ratio in a direct comparison of bucindolol to metoprolol (estimated)” value ([3]; from relative effect size) of the same compound?
A: 0.49
